Data taken from patent US5552267A, “Solution for prolonged organ preservation” (priority 1994, dated 1996).
“Also recorded” adds a separate entry of the source.

How the values were obtained:
[1] = system: heart; assay: heterotopic rat heart transplant model, First Series Experiment One (heart survival rate, heart transplant index); format: in vivo, rat (male Sprague-Dawley); settings: in place of db cAMP, 24 hr
[2] = system: heart; assay: heterotopic rat cardiac transplant, cAMP series, graft survival/score; format: in vivo, rat (male Sprague-Dawley); settings: 12 h in LR
Excerpt: Preservation solutions included lactated Ringer's (LR) solution Baxter, Edison, N.J.), or LR supplemented with rolipram ZK 62 711, Schering AG, Berlin, Germany), indolidan LY195115, Lilly Research Laboratories, Indianapolis, Ind.), sodium butyrate, 8-bromoadenosine, 8-bromoadenosine 3',5'monophosphate (8-Br-cAMP; Sigma Chemical Co., St. Louis, Mo.), the Rp -isomer of adenosine 3',5'monophosphorothioate (Rp -cAMPS; Biolog, La Jolla, Calif.), the Sp isomer of adenosine 3',5'monophosphorothioate (Sp -cAMPS; Biolog), and N^6,O^2' -dibutyryl adenosine 3',5'monophosphate sodium (db-cAMP; Aldrich, Milwaukee, Wis.). Components were combined within 4 hrs of donor cardiectomy, and preservation solutions were kept at 4° C. University of Wisconsin solution (UW)(2-4 was purchased from Dupont (Wilmington, Del.).
Donor Cardiectomy. Male Sprague-Dawley rats (350-450 grams, Camm Research, Wayne, N.J.) were anesthetized, heparinized (1000 units of heparin given intravenously), and the donor heart removed in the following manner; a midline incision was performed, followed by rapid cardioplegic arrest with 5 ml of cold (4° C.), high potassium solution (NACl, 0.9%, and KCl, 40 mEq/L). The heart was maintained at 4° C. throughout the harvest procedure by the application of a cold saline soaked gauze over its surface. […] The aortic root was flushed with ≈15 ml of the cold preservation solution until the coronary arteries became visibly clear, and the heart remained in the cold storage solution for the indicated duration until the time of transplantation.
Heterotopic Transplant. The same breed/size of rat was used, and similarly anesthetized, but not given heparin. A midline abdominal incision was made, and the infrarenal aorta and vena cava were occluded with a side-biting vascular clamp and longitudinal incisions were made in each vessel. The donor heart was removed from the preservation solution and kept moist with saline-soaked gauze. […] Blood flow was restored to the graft (by removal of the clamp) exactly one hour after removal from the cold preservation solution. […] Ten minutes after removal of the cross-clamp, an electrocardiogram was taken (Grass Polygraph, Quincy, Mass.) and the heart was judged by the same blinded investigators throughout based on the presence/absence of regular contractions and a transplant score (0-5, worst-best, respectively) employing the following criteria: contraction (poor=0, average=1, vigorous=2), tissue turgor (hard=0, average=1, soft=2), and color (dusky=0, pink=1). […] The heterotopic cardiac transplant experiments performed in these studies were done by a single surgeon after establishment of this model and acquisition of surgical expertise, with control and experimental groups interspersed throughout the study period to prevent a time-dependent bias pertaining to surgical skills.
Statistics. Graft survival data and transplant scores were analyzed using the Kruskal-Wallis non-parametric analysis of variance (38). Comparisons of individual treatments were performed using the procedure described by Dunn (39). In addition, the effect of db-cAMP on the time-course of graft failure was quantified by multivariate logistic regression. Graft myeloperoxidase data, microsphere data, and cAMP/adenylate cyclase/phosphodiesterase data from experiments with cultured vascular smooth muscle cells were analyzed by t-tests when 2 treatments were performed or by analysis of variance when 3 or more treatments were performed. In the latter case, post-hoc comparison of treatment groups were tested using Tukey's procedure. Values are expressed as means ±SEM, with a p <0.05 considered statistically significant.

[3] = system: HUVECs / platelets; assay: NO by inhibition of thrombin-induced platelet aggregation and serotonin release by ECs; format: cell-based, human; settings: normoxic ECs (hemoglobin); hypoxia 16 h + reoxygenated ECs (SOD, BHT)
Protocol: Radiolabelled serotonin (^14 C-5-hydroxytryptamine, Amersham, Arlington Heights, Ill.) was incorporated into the platelets by adding 0.5 μCi during the blood collection process. Inhibition of cyclooxygenase was confirmed by the absence of aggregation to 1 mM sodium arachidonate.
HUVECs from fresh human umbilical veins were isolated and grown according to previously published methods^12, and used between the 3rd and 4th passages. HUVEC cyclooxygenase was inhibited with acetylsalicylic acid (1 mmol/L in M199 medium, incubated for 30 minutes at 37° C., and then washed twice with M199 to remove residual acetylsalicylic acid) immediately prior to collagenase digestion. […] An hypoxic environment was administered by placing cells in a specially designed airtight chamber (Coy Laboratory Products, Ann Arbor, Mich.) with a normobaric environment comprised of 90% N2, 5% H2, 5% CO2, and 0% O2. pO2 s of 15 Torr in the culture medium were achieved by the use of a palladium catalyst in the chamber to reduce any residual O2. All manipulations, including centrifugation and washing of cells (up to the final aggregometry, or reoxygenation phases as described), were performed within the hypoxia chamber. Reoxygenation was accomplished by removing an aliquot of washed and counted HUVECs in suspension to room air for the indicated duration.
Platelets were challenged with graded doses of α-thrombin (Sigma) to determine the concentration that caused maximal platelet aggregation (0.3 u/mL in all cases), and this dose was used for all further studies. […] Interference with light absorption was measured for 3 minutes to obtain platelet aggregation curves, after which the cuvette contents were placed on ice, centrifuged at 5,000 rpm for 5 minutes at 4° C., and 200 μL of supernatant was recovered and counted in a liquid scintillation counter to quantify ^14 C-serotonin release. […] Results are expressed as both aggregometry curves and as % maximal serotonin release as defined by thrombin challenge in the absence of ECs.

[4] = system: nitric oxide production in heart; assay: direct measurement of coronary vascular and endocardial NO with porphyrinic microsensor; design: species or system rat; settings: transplanted hearts
Protocol: Direct measurement of coronary vascular and endocardial nitric oxide synthesis were made with a porphyrinic microsensor^13 using differential pulse voltammetry or amperometry. Rat hearts were explanted and preserved as described above, and studied fresh (no preservation/transplantation) or after hypothermic preservation in lactated Ringer's (LR) solution, heterotopic transplantation, and 10 minutes of reperfusion. The coronary vasculature was flushed free of blood with LR followed by 4 ml of LR supplemented with L-Arg (2 mM) and bradykinin ([…], Sigma), which was recycled (1 ml/min) through the coronary vasculature by flushing down the cross-clamped aortic root. Aliquots of perfusate were immediately transferred to an anaerobic environment for measurements and compared to an aqueous nitric oxide reference. Differential pulse voltammograms were obtained using a sensor (working electrode), saturated calomel electrode reference, and platinum wire-auxiliary electrode, with a pulse amplitude of 40 mV. Endocardial NO was measured by implanting the sensor in the septal endocardium of a freshly explanted or preserved/transplanted heart, and after the baseline stabilization, […] bradykinin was applied and NO release continuously monitored by amperometry at constant potential of 0.63 V.

[5] = system: nitric oxide in lung tissue; assay: ex vivo pulmonary NO with porphyrinic microsensor; design: species or system rat
Protocol: Direct measurement of pulmonary NO production was made using a porphyrinic microsensor^30 and differential pulse voltammetry. Pieces of rat lung of equal weight (40±4 mg) were harvested following 6 hrs of hypothermic preservation in LR alone, or 6 hrs of preservation followed by orthotopic transplantation and 30 minutes of reperfusion as described above. These pieces were placed in a vial containing 2 mL of LR and equilibrated to 37° C. under ambient conditions. Differential pulse voltammograms (current [proportional to NO concentration] versus potential) with pulse amplitude of 40 mV were obtained with a sensor placed on the tissue surface. A saturated calomel reference electrode (SCE) and platinum wire (auxiliary electrode) were immersed in the LR solution. The sensor is a working electrode at which oxidation of NO occurs, resulting in an electric current (which flows between working and auxiliary electrodes). The reference electrode is used to monitor the potential of the working electrode. NO concentrations measured ex vivo have been normalized, and are reported as per 40 mg of tissue. An aqueous NO solution prepared as previously described^31 was used to calibrate the sensor.

[6] = system: nitric oxide at lung surface; assay: in vivo pulmonary NO with porphyrinic microsensor; design: species or system rat
Protocol: Measurements of nitric oxide concentrations in vivo were performed with a two electrode system using a porphyrinic sensor as a working electrode and a platinum wire as an auxiliary/reference electrode. The porphyrinic sensor with a flexible base was lowered onto the exposed surface of the lung using a micromanipulator. A small piezoelectric signal (mechanically generated current) was used to indicate that the sensor had made contact with the tissue surface. NO measurements were begun once the flexible sensor assumed an L-shaped configuration on the tissue surface and the platinum wire was connected to adjacent tissue. Continous amperometric (current-time) measurements were obtained at a constant potential of 0.68 V, during the period of warm ischemia (after the lung was sewn in place but not yet reperfused) and continously as the vascular cross-clamp was released and reperfusion initiated. Topical application of the calcium ionophore (A23187, 9.5 μM; Sigma) and superoxide dismutase (100 U/ml; Sigma) was applied as monitoring was continued.

[7] = system: cAMP-dependent protein kinase; settings: cited from earlier work
[8] = system: myocardial infarct / neutrophils; settings: canine ischemia/reperfusion; cited from earlier work
[9] = system: cGMP-dependent protein kinase; settings: cited from earlier work
[10] = system: lung; assay: orthotopic rat left lung transplantation, cGMP series (hemodynamics, oxygenation, recipient survival); format: in vivo, rat (male Lewis); settings: 6 h in EC
Protocol: Orthotopic rat left lung transplantation was accomplished using inbred male Lewis rats (250-300 gms), using a modification of a previously described technique^29. The donor rat was anesthetized and heparinized (500 U intravenously), and endotracheal intubation was performed by inserting a 16 gauge angiocatheter into the trachea using blunt cervical dissection, after which the rat was ventilated with room air at a constant rate (100 breaths/minute) and tidal volume (2.5 ml), using a Harvard rodent ventilator. […] The pulmonary artery (PA) and pulmonary vein (PV) were divided, the bronchus ligated with the lung partially inflated and then divided, and the lung removed. The vascular stumps were each pulled through a small plastic cylinder, and a lip of vessel was turned back around the edge and secured in place with a suture to form a "cuff." A small plastic cylinder was inserted into the bronchial stump and secured, and the lung was then wrapped in gauze and submerged in cold preservation solution for the desired interval.
The recipient rat (gender/size/strain-matched) was similarly anesthetized and intubated (ventilated with 100% oxygen), but not heparinized. A left thoracotomy was performed, the hilum was dissected, and the left bronchus, PA, and PV were isolated, cross-clamped, divided and the native lung was removed from the field. The PA and PV stumps were rinsed with heparinized saline to remove any clot. The donor lung was brought onto the surgical field, and the cylinder (bronchus) and cuffs (PA and PV) were connected rapidly to their respective structures with a simple staying suture. This cuff technique permitted rapid approximation of donor and recipient tissues with no contact of a foreign substance with the luminal vascular surface. The hilar cross-clamp was released, re-establishing blood flow, and the bronchus tie was removed, enabling gas exchange. A snare was then passed around the right PA, and a Millar catheter (2F; Millar Instruments,Houston, Tex.) was introduced through a small hole (surrounded by a pursestring) into the main PA; similarly, a Millar catheter was introduced into the left atrium (LA). A flow probe (Transonics, Ithaca, N.Y.) was then placed around the main PA. Arterial blood gas sampling performed via the left femoral artery.
Online hemodynamic monitoring was accomplished using MacLab and a Macintosh IIci computer. The hemodynamic parameters that were measured included PA pressure (mm Hg), blood flow (ml/min), LA pressure (mm Hg), as well as arterial oxygen tension (mm Hg) during inspiration of 100% oxygen; pO2 was analyzed with a model ABL-2 dissolved gas analyzer (Radiometer, Copenhagen, Denmark). Pulmonary vascular resistances (PVRs) were calculated as [mean PA pressure-LA pressure]/PA flow. The native lung supported the recipient during the period of warm ischemia (the period during which the donor lung was removed from cold preservation until the time of reperfusion, <10 min. in all instances), but immediately following rapid hemodynamic instrumentation and acquisition of baseline measurements, the native (right) PA was then ligated, and serial measurements (representative solely of the transplanted lung) were taken every five minutes for 30 minutes. Because the native lung was effectively removed from the circulation by ligation of the right PA, these measurements represent function of the transplanted lung. Recipient death was identified by the cessation of cardiac mechanical activity observed through the thoracotomy.
Preservation solutions were freshly made and coded by a technician not otherwise involved in the experiments, according to a general plan which included both control and experimental groups. […]

[11] = lung preserved 6 h in LR, no reimplantation

Compound: CCCC(=O)[O-].[Na+] [butyrate, sodium butyrate]
- beneficial effect on cardiac preservation [1]: no such beneficial effect
- effect on cardiac preservation [2]: consistently failed

Compound: Cc1cc(C(C)(C)C)c(O)c(C(C)(C)C)c1 [BHT, butylated hydroxytoluene]
- effect on NO / platelet inhibition by ECs [3]: restore NO levels

Compound: Nc1ncnc2c1nc(Br)n2[C@@H]1O[C@H](CO)[C@@H](O)[C@H]1O [8-bromoadenosine]
- beneficial effect on cardiac preservation [1]: no such beneficial effect
- effect on cardiac preservation [2]: ineffective

Compound: SOD: bovine erythrocyte superoxide dismutase
- effect on NO / platelet inhibition by ECs [3]: restore NO levels
- effect on NO levels [4]: levels augmented
- fold increase in detectable NO with SOD ([5]; lung preserved 6 h in LR and reimplanted): ~ 25 fold
- NO concentration with SOD [5, 11]: 300 nM
- increase in NO with SOD [5, 11]: 50%
- increase in NO with SOD ([6]; normal lung): 10%
- local NO concentration with SOD ([6]; normal lung): 720 ± 110 nM
- NO level with SOD during reperfusion ([6]; preserved 6 h in LR, transplanted, from ~25 nM): ~ 40 nM

Compound: Nc1ncnc2c1ncn2[C@@H]1O[C@@H]2CO[P@@](O)(=S)O[C@H]2[C@H]1O [Rp -cAMPS, Rp isomer of adenosine 3'5'monophosphorothioate]
- effect on cardiac preservation [2]: prevented preservation enhancement induced by 8-bromo-cAMP; also recorded: abolished the salutory effect of 8-Br-cAMP on preservation
- effect on cAMP-dependent protein kinase [7]: nonhydrolyzable competitive PKA antagonist

Compound: hemoglobin
- effect on NO / platelet inhibition by ECs [3]: blocked

Compound: COc1ccc(C2CNC(=O)C2)cc1OC1CCCC1 (stereo not shown) [rolipram]
- effect on cardiac preservation [2]: uniformly enhanced preservation
- myocardial infarct size [8]: does not limit myocardial infarct size
- neutrophil superoxide production in vitro / no-reflow [8]: significantly reduces neutrophil production of superoxide in vitro

Compound: Nc1ncnc2c1ncn2[C@@H]1O[C@@H]2CO[P@](O)(=S)O[C@H]2[C@H]1O [Sp -cAMPS, Sp isomer of adenosine 3'5'monophosphorothioate]
- effect on cardiac preservation [2]: enhanced preservation
- effect on cGMP-dependent protein kinase [9]: antagonist of the cGMP-dependent protein kinase
- effect on cAMP-dependent protein kinase [7]: PKA agonist

Compound: Nc1nc2c(nc(Sc3ccc(Cl)cc3)n2[C@@H]2O[C@@H]3CO[P@@](O)(=S)O[C@H]3[C@H]2O)c(=O)[nH]1 [Rp-8-pCPT-cGMPS, R isomer of 8-(4-chlorophenylthio)guanosine-3'5'-cyclic monophosphorothioate]
- effect on lung preservation [10]: block the beneficial effects of 8-Br-cGMP
- Ki ([9]; cGMP-dependent protein kinase, personal communication): 0.5 µM
- Ki ([7]; cAMP-dependent protein kinase, personal communication): 8.3 µM
